According to US10377747B2, “2-arylamino pyridine, pyrimidine or triazine derivatives, preparation method and use thereof” (Wuxi Shuangliang Biotechnology Co., Ltd., priority 2015, dated 2019):

How the values were obtained:
[1] = test system: H1975 (non-small-cell lung cancer cells. EGFR L858K/T790M); experiment: Tumor cell proliferation and growth inhibition analysis (Cell Titer-Glo, 72 h), H1975; format: cell-based; conditions: Homo sapiens, NCI-H1975; H1975 cells, 72 h exposure, Cell Titer-Glo; read-out: H1975 GI50
From the text: (§1) […] cell proliferation assay is described as follows.
(§2) Tumor cell proliferation and growth inhibition analysis: H1975 (non-small-cell lung cancer cells. EGFR L858K/T790M) and A431 (human epidermal cancer cells, EGFR wild type) cells were commercially available from the ATCC cell bank. […] The growth medium for A431 cells was DMEM (GIBCO, 11995-065), 10% fetal bovine serum. The influence exerted by the compounds on the proliferation activity of tumor cells was detected by Cell Titer-Glo assay. Tumor cells were exposed to the treatment conditions for 72 h, and the cell density used in each experiment for each cell line was adjusted according to the 72 h cell growth curve. 10 concentration gradients and three-fold dilutions (0.5 nM-10 μM) were set for compounds to be tested, and 3 parallel controls were used for each concentration value.
(§3) Trypsin was used for digesting cells in the logrithmic growth phase to prepare cell suspension, which was counted by a Roche counter and appropriately diluted with complete medium to a final cell concentration of 1˜2×10^3 cell/mL. 384-well plates were seeded with cells, and 22.6 μL were seeded for each well. 3 parallels were set. The plates were incubated in an incubator with 5% CO2 at 37° C. overnight. The compounds were dissolved in DMSO to prepare […] mother liquor. […] 2 μL of compound solution was added into 18 μL of culture medium, and fully mixed. Then 2 μL of mixed solution of compound and culture medium was added into 18 μL of culture medium, and fully mixed. 2.4 μL of mixtures were added into a 384-well plates. […] After cultivation for 72 h, 24 μL of Cell Titer-Glo reagent was added. The contents were mixed on an orbital shaker for 2 min to induce cell lysis. The 384-well plates were incubated at room temperature for 10 min to stabilize the […] signal value. Data was read by Infinite® M1000 PRO (TECAN), and calculated with GraphPad Prism version 5.0. GI50 value was obtained by adjustment using a non-linear regression model of dose response curves.

[2] = test system: A431 (human epidermal cancer cells, EGFR wild type); experiment: Tumor cell proliferation and growth inhibition analysis (Cell Titer-Glo, 72 h), A431; format: cell-based; conditions: A-431, 72 h exposure
From the text: as §1, §2, §3

C=CC(=O)Nc1cc(Nc2ncnc(-c3cn(C)c4ncccc34)n2)c(OC(F)F)cc1N(C)CCN(C)C [Example 38, N-(4-(difluoromethoxy)-2-((2-(dimethylamino)ethyl)(methyl)amino)-5-((4-(1-methyl-1H-pyrrolo[2,3-b]pyridin-3-yl)-1,3,5-triazin-2-yl)amino)phenyl)acrylamide]
GI50 [1]: 8.3 nM | GI50 [2]: 144 nM

C=CC(=O)Nc1cc(Nc2cc(-c3cn(C)c4ncccc34)ccn2)c(OC)cc1N(C)CCN(C)C [Example 40, N-(2-((2-(dimethylamino)ethyl)(methyl)amino)-4-methoxy-5-((4-(1-methyl-1H-pyrrolo[2,3-b]pyridin-3-yl)pyridin-2-yl)amino)phenyl)acrylamide]
GI50 [1]: 28.9 nM | GI50 [2]: 198 nM

C=CC(=O)Nc1cc(Nc2nccc(-c3cn(C)c4cccnc34)n2)c(OC(F)F)cc1N1CC(N(C)C)C1 [Example 20, N-(4-(difluoromethoxy)-2-(3-(dimethylamino)azetidin-1-yl)-5-((4-(1-methyl-1H-pyrrolo[3,2-b]pyridin-3-yl)pyrimidin-2-yl)amino)phenyl)acrylamide]
GI50 [1]: > 1000 nM | GI50 [2]: > 1000 nM

C=CC(=O)Nc1cc(Nc2nccc(-c3nn(C)c4ccsc34)n2)c(OC)cc1N(C)CCN(C)C [Example 24, N-(2-((2-(dimethylamino)ethyl)(methyl)amino)-4-methoxy-5-((4-(1-methyl-1H-thieno[3,2-c]pyrazol-3-yl)pyrimidin-2-yl)amino)phenyl)acrylamide]
GI50 [1]: 10.7 nM | GI50 [2]: 209 nM

C=CC(=O)Nc1cc(Nc2ncnc(-n3cnc4ccccc43)n2)c(OC)cc1N(C)CCN(C)C [Example 39, N-(5-((4-(1H-benzo[d]imidazol-1-yl)-1,3,5-triazin-2-yl)amino)-2-((2-(dimethylamino)ethyl)(methyl)amino)-4-methoxyphenyl)acrylamide]
GI50 [1]: 21.2 nM | GI50 [2]: 15.2 nM

C=CC(=O)Nc1cc(Nc2nccc(-c3cn(C)c4cccnc34)n2)c(OC)cc1N1CC2(CCCN2C)C1 [Example 17, N-(4-methoxy-5-((4-(1-methyl-1H-pyrrolo[3,2-b]pyridin-3-yl)pyrimidin-2-yl)amino)-2-(5-methyl-2,5-diazaspiro[3.4]oct-2-yl)phenyl)acrylamide]
GI50 [1]: 39.8 nM | GI50 [2]: 1300 nM

C=CC(=O)Nc1cc(Nc2ncnc(-c3cccc4cc[nH]c34)n2)c(OC(F)F)cc1N(C)CCN(C)C [Example 33, N-(5-((4-(1H-indol-7-yl)-1,3,5-triazin-2-yl)amino)-4-(difluoromethoxy)-2-((2-(dimethylamino)ethyl)(methyl)amino)phenyl)acrylamide]
GI50 [1]: 9.8 nM | GI50 [2]: 100 nM

C=CC(=O)Nc1cc(Nc2nccc(-c3nn(C)c4ccsc34)n2)c(OC(F)F)cc1N1CC2(CCCN2C)C1 [Example 29, N-(4-(difluoromethoxy)-5-((4-(1-methyl-1H-thieno[3,2-c]pyrazol-3-yl)pyrimidin-2-yl)amino)-2-(5-methyl-2,5-diazaspiro[3.4]oct-2-yl)phenyl)acrylamide]
GI50 [1]: 60.3 nM | GI50 [2]: > 1000 nM

C=CC(=O)Nc1cc(Nc2nccc(-c3c(C)n(C)c4sc(C)cc34)n2)c(OC)cc1N(C)CCN(C)C [Example 31, N-(2-((2-(dimethylamino)ethyl)(methyl)amino)-4-methoxy-5-((4-(2,5,6-trimethyl-thieno[2,3-b]pyrrol-4-yl)pyrimidin-2-yl)amino)phenyl)acrylamide]
GI50 [1]: 33.5 nM | GI50 [2]: 625 nM

C=CC(=O)Nc1cc(Nc2nccc(-c3noc4ccccc34)n2)c(OC)cc1N1CCN(C)CC1 [Example 2, N-(5-((4-(benzo[d]isoxazol-3-yl)pyrimidin-2-yl)amino)-4-methoxy-2-(4-methylpiperazin-1-yl)phenyl)acrylamide]
GI50 [1]: 168 nM | GI50 [2]: 728 nM

C=CC(=O)Nc1cc(Nc2ncnc(-c3cccc4cc[nH]c34)n2)c(OC)cc1N1CC2(CCCN2C)C1 [Example 36, N-(5-((4-(1H-indol-7-yl)-1,3,5-triazin-2-yl)amino)-4-methoxy-2-(5-methyl-2,5-diazaspiro[3.4]oct-2-yl)phenyl)acrylamide]
GI50 [1]: 114 nM | GI50 [2]: 1120 nM

C=CC(=O)Nc1cc(Nc2nccc(-c3cn(C)c4cccnc34)n2)c(OC(F)F)cc1N1CC2(CCCN2C)C1 [Example 23, N-(4-(difluoromethoxy)-5-((4-(1-methyl-1H-pyrrolo[3,2-b]pyridin-3-yl)pyrimidin-2-yl)amino)-2-(5-methyl-2,5diazaspiro[3.4]oct-2-yl)phenyl)acryl amide]
GI50 [1]: 110 nM | GI50 [2]: 2440 nM

C=CC(=O)Nc1cc(Nc2nccc(-c3cn(C)c4cccnc34)n2)c(OC)cc1N1CC(N(C)C)C1 [Example 14, N-(2-(3-(dimethylamino)azetidin-1-yl)-4-methoxy-5-((4-(1-methyl-1H-pyrrolo[3,2-b]pyridin-3-yl)pyrimidin-2-yl)amino)phenyl)acrylamide]
GI50 [1]: 1460 nM | GI50 [2]: ~3520 nM

C=CC(=O)Nc1cc(Nc2nccc(-c3cn(C)c4cccnc34)n2)c(OC)cc1N(C)CCN(C)C [Example 12, N-(2-((2-(dimethylamino)ethyl)(methyl)amino)-4-methoxy-5-((4-(1-methyl-1H-pyrrolo[3,2-b]pyridin-3-yl)pyrimidin-2-yl)amino)phenyl)acrylamide]
GI50 [1]: 6.8 nM | GI50 [2]: 10200 nM

C=CC(=O)Nc1cc(Nc2nccc(-c3noc4ccccc34)n2)c(OC(F)F)cc1N(C)CCN(C)C [Example 6, N-(5-((4-(benzo[d]isoxazol-3-yl)pyrimidin-2-yl)amino)-4-(difluoromethoxy)-2-((2-(dimethylamino)ethyl)(methyl)amino)phenyl)acrylamide]
GI50 [1]: 4 nM | GI50 [2]: 89.1 nM

C=CC(=O)Nc1cc(Nc2nccc(-c3noc4ccccc34)n2)c(OC)cc1N1CC2(CCCN2C)C1 [Example 5, N-(5-((4-(benzo[d]isoxazol-3-yl)pyrimidin-2-yl)amino)-4-methoxy-2-(5-methyl-2,5-diazaspiro[3.4]oct-2-yl)phenyl)acrylamide]
GI50 [1]: 31.2 nM | GI50 [2]: 1220 nM

C=CC(=O)Nc1cc(Nc2nccc(-c3noc4ccccc34)n2)c(OC(F)F)cc1N1CCC(N(C)C)CC1 [Example 9, N-(5-((4-(benzo[d]isoxazol-3-yl)pyrimidin-2-yl)amino)-4-(difluoromethoxy)-2-(4-(dimethylamino)piperidin-1-yl)phenyl)acrylamide]
GI50 [1]: 24.2 nM | GI50 [2]: > 1000 nM

C=CC(=O)Nc1cc(Nc2nccc(-c3cn(C)c4cc(C)sc34)n2)c(OC)cc1N(C)CCN(C)C [Example 30]
GI50 [1]: 21.5 nM | GI50 [2]: 943 nM

C=CC(=O)Nc1cc(Nc2ncnc(-c3cccc4cc[nH]c34)n2)c(OC)cc1N1CCN(C)CC1 [Example 34, N-(5-((4-(1H-indol-7-yl)-1,3,5-triazin-2-yl)amino)-4-methoxy-2-(4-methylpiperazin-1-yl)phenyl)acrylamide]
GI50 [1]: 462 nM | GI50 [2]: 2570 nM
